Experimental findings from US4312867A, “Antibacterial compounds, processes for their preparation and compositions containing them” (Beecham Group Limited, priority 1979, dated 1982) are described below.

For one series, the system named is M. dispar NCTC 10125. The experiment in a line: anti-mycoplasmal MIC, Friis broth solidified with agarose (Table 4). It counts as cell-based. Particulars: 144 h, 6 days at 37° C. As to the method: The values were determined in Friis broth solidifed with 0.9% agarose. The inoculum was 10^3 to 10^5 CFV and the MIC's were recorded after 6 days incubation at 37° C.

Series [1] is described as follows: Mean serum concentrations in neonatal piglets after intramuscular or oral administration. It is filed as in vivo. As to conditions: pig, 50 mg/kg. As to the method: (f) Mean serum concentrations in neonatal piglets after intramuscular or oral administration at 50 mg/kg of 6-sulphamoylhexyl monate A
Blood levels were assessed in neonatal piglets (2 to 4 animals per group and mean bodyweights about 2 kg). The dose was 50 mg/kg (dose solution=25 mg/ml in 25% ethanol). Doses were given by intramuscular injection and orally by stomach tube. Piglets were bled at intervals up to 6 and at 24 hours, and serum assayed microbiologically (B. subtilis ATCC 6633).

Converted amounts (≈) assume the structure as drawn. Bounds are passed on as bounds.

As a reminder, the MIC is the smallest concentration in the dilution series that meets the test's criterion for growth inhibition. Lower therefore signals greater potency. `C/C(=C\C(=O)OC(C)CCCCCS(N)(=O)=O)CC1OCC(CC2OC2C(C)C(C)O)C(O)C1O` (centres unmarked) [Example 5, 7-Sulphamoylhept-2-yl monate A] yielded an MIC with M. dispar NCTC 10125 of 100 µg/mL (≈ 192 µM).

On to `C/C(=C\C(=O)OCCCCCCS(N)(=O)=O)CC1OCC(CC2OC2C(C)C(C)O)C(O)C1O` (centres unmarked) [Example 2, 6-Sulphamoylhexyl monate A], for which, in series [1] (im), the concentration at 10 min was 31400 ng/mL, the concentration at 20 min was 31200 ng/mL, the concentration at 40 min was 23700 ng/mL and the concentration at 1 h came to 17300 ng/mL. In series [1] (im), this compound gave a concentration at 2 h of 9200 ng/mL, a concentration at 3 h of 3200 ng/mL, a concentration at 4 h of 1020 ng/mL and a concentration at 5 h below 600 ng/mL. In addition, in series [1] (po), the concentration at 10 min amounted to 5900 ng/mL, the concentration at 20 min was 8300 ng/mL, the concentration at 40 min came out at 8600 ng/mL and the concentration at 1 h worked out at 5900 ng/mL. In series [1] (po), this compound came in with a concentration at 2 h of 1800 ng/mL, a concentration at 3 h of 1500 ng/mL, a concentration at 4 h of 740 ng/mL and a concentration at 5 h below 510 ng/mL.
